Source: patent US9193731B2, “Antimicrobial compounds and methods of making and using the same” (Melinta Therapeutics, Inc., priority 2009, dated 2015)

Test system: Escherichia coli strain ATCC25922
Assay: standard microdilution assay to determine minimum inhibitory concentrations (MICs)
Assay type: cell-based
Settings: Escherichia coli strain ATCC25922, microdilution
Protocol: Minimum inhibitory concentrations (MICs) are determined by the microdilution method, typically in a final volume of 100 microliters, according to protocols outlined by The Clinical and Laboratory Standards Institute [CLSI; formerly the National Committee for Clinical Laboratory Standards (NCCLS)]. See CLSI: Methods for dilution antimicrobial susceptibility tests for bacteria that grow aerobically; approved standard-fifth edition. Wayne, Pa.: NCCLS; 2000. The assays can be also be performed in microtiter trays according to conventional methodologies as published by the CLSI. See CLSI. Methods for Dilution Antimicrobial Susceptibility Tests for Bacteria That Grow Aerobically; Approved Standard—Seventh Edition. CLSI Document M7-A7 [ISBN 1-56238-587-9] CLSI, 940 West Valley Road, Suite 1400, Wayne Pa. 19087-1898 USA, 2006).
The compounds of the present invention were tested for antimicrobial activity. The compounds were run against Escherichia coli strain ATCC25922 using a standard microdilution assay to determine minimum inhibitory concentrations (MICs). […] A “N/A” means that data is unavailable. It will be recognized by one skilled in the art that the compounds can be assessed against other bacterial organisms and that the presentation of data for activity against Escherichia coli is illustrative and in no way is intended to limit the scope of the present invention. The compounds of the present invention can be assayed against a range of other microorganisms depending upon the performance activity desired to be gathered. Furthermore, the “+”, “−”, and “N/A” representation and the selection of a cutoff value of 16 micrograms/ml is also illustrative and in no way is intended to limit the scope of the present invention.

| Compound | E. coli ATCC25922 MIC |
| --- | --- |
| N=C(N)NCCCNS(=O)(=O)c1ccc(-n2cc3cc(-c4ccc(S(=O)(=O)NC5CCNCC5)cc4)[nH]c3nc2=O)cc1 [Compound 1103] | + (a “+” indicates that the compound has an MIC value of 16 micrograms/ml or less) |
| N=C(N)NCCCNCc1ccc(-n2cc3cc(-c4cccc(C(NC5CN(C(=N)N)C5)C(F)(F)F)c4)[nH]c3nc2=O)cc1 (centres unmarked) [Compound 2024a] | + (a “+” indicates that the compound has an MIC value of 16 micrograms/ml or less) |
| N=C(N)NCCCNCc1ccc(-n2cc3cc(-c4ccc(C(NC5CCNCC5)C(F)(F)F)cc4)[nH]c3nc2=O)cc1 (centres unmarked) [Compound 944] | + (a “+” indicates that the compound has an MIC value of 16 micrograms/ml or less) |
| N=C(N)NCCCNCc1ccc(-n2cc3cc(-c4ccc(S(=O)(=O)N(CC5CC5(F)F)C5CCNCC5)cc4)[nH]c3nc2=O)cc1 (centres unmarked) [Compound 857] | + (a “+” indicates that the compound has an MIC value of 16 micrograms/ml or less) |
| NC(N)=NCCCNCc1ccc(-n2cc3cc(-c4cccc(S(=O)(=O)N(CCc5cccc([N+](=O)[O-])c5)C5CCNCC5)c4)[nH]c3nc2=O)cc1 [Compound 1185] | + (a “+” indicates that the compound has an MIC value of 16 micrograms/ml or less) |
| N=C(N)NCCCNCc1ccc(-n2cc3cc(-c4cc(C(=O)NCCCF)cc(N5CCNCC5)c4)[nH]c3nc2=O)cc1 [Compound 997] | + (a “+” indicates that the compound has an MIC value of 16 micrograms/ml or less) |
| N=C(N)NCCCNCc1ccc(-n2cc3cc(-c4ccc(S(=O)(=O)CCN)cc4)[nH]c3nc2=O)cc1 [Compound 1130] | + (a “+” indicates that the compound has an MIC value of 16 micrograms/ml or less) |
| COc1ccc(CN(C2CCNCC2)S(=O)(=O)c2ccc(-c3cc4cn(-c5ccc(CNCCCNC(=N)N)cc5)c(=O)nc4[nH]3)cc2)cc1[N+](=O)[O-] [Compound 787] | + (a “+” indicates that the compound has an MIC value of 16 micrograms/ml or less) |
| NCc1ccc(-n2cc3cc(-c4ccc(S(=O)(=O)N(CCCN5CCCC(O)C5)C5CCNCC5)cc4)[nH]c3nc2=O)cc1 (centres unmarked) [Compound 1092] | − (a “−” indicates that the compound has an MIC value greater than 16 micrograms/ml) |
| CC(=O)NCc1ccc(-n2cc3cc(-c4cccc(CCCN)c4)[nH]c3nc2=O)cc1 [Compound 2063a] | − (a “−” indicates that the compound has an MIC value greater than 16 micrograms/ml) |
| N=C(N)NCCCNCc1ccc(-n2cc3cc(-c4cc(CCCCN)ccc4Cl)[nH]c3nc2=O)cc1 [Compound 2073a] | + (a “+” indicates that the compound has an MIC value of 16 micrograms/ml or less) |
| N=C(N)NCCCNC(=O)c1ccc(-n2cc3cc(-c4ccc(S(=O)(=O)N(CCOc5ccc(F)cc5)C5CCNCC5)cc4)[nH]c3nc2=O)cc1 [Compound 1093] | + (a “+” indicates that the compound has an MIC value of 16 micrograms/ml or less) |
| N=C(N)NCCCNCc1ccc(-n2cc3cc(-c4cc(CCCCN)cc(SC(F)(F)F)c4)[nH]c3nc2=O)cc1 [Compound 2046a] | + (a “+” indicates that the compound has an MIC value of 16 micrograms/ml or less) |
| N=C(N)NCCCNCc1ccc(-n2cc3cc(-c4ccc(S(=O)(=O)N(Cc5ccc6nonc6c5)C5CCNCC5)cc4)[nH]c3nc2=O)cc1 [Compound 769] | + (a “+” indicates that the compound has an MIC value of 16 micrograms/ml or less) |
| N=C(N)NCCCNCc1ccc(-n2cc3cc(C4CN(CCCCN)CCO4)[nH]c3nc2=O)cc1 (centres unmarked) [Compound 1381] | + (a “+” indicates that the compound has an MIC value of 16 micrograms/ml or less) |
| N=C(N)NCCCNC(=O)c1ccc(-n2cc3cc(-c4ccc(S(=O)(=O)NC5CNC5)cc4)[nH]c3nc2=O)cc1 [Compound 1268] | + (a “+” indicates that the compound has an MIC value of 16 micrograms/ml or less) |
| NCCCCOc1ccc(-c2cn3cc(-c4ccc(S(=O)(=O)N5CCNCC5)cc4)[nH]c3nc2=O)cc1 [Compound 809] | − (a “−” indicates that the compound has an MIC value greater than 16 micrograms/ml) |
| NCCCOCc1ccc(-c2cn3cc(-c4ccc(C(=O)N5CCNCC5)cc4)[nH]c3nc2=O)cc1 [Compound 931] | − (a “−” indicates that the compound has an MIC value greater than 16 micrograms/ml) |
| N=C(N)NCCCNCc1ccc(-n2cc3cc(-c4cccc(OCC5CNCCO5)c4)[nH]c3nc2=O)cc1 (centres unmarked) [Compound 1452] | + (a “+” indicates that the compound has an MIC value of 16 micrograms/ml or less) |
| N=C(N)NCCCNCc1ccc(-n2cc3cc(-c4cc(CNCC(F)(F)F)cc(N5CCNCC5)c4)[nH]c3nc2=O)cc1 [Compound 1040] | + (a “+” indicates that the compound has an MIC value of 16 micrograms/ml or less) |

Same assay, conditions: Escherichia coli, ATCC25922, Escherichia coli strain ATCC25922, microdilution; read-out: E. coli ATCC25922 MIC

| Compound | MIC |
| --- | --- |
| NCCCN(CCCN)Cc1ccc(-n2cc3cc(-c4ccc(C(=O)Nc5cccnc5)cc4)[nH]c3nc2=O)cc1 [Compound 195] | > 16 µg/mL |
| NCCCN(CCCN)Cc1ccc(-n2cc3cc(-c4ccc(S(=O)(=O)N(CCN5CCOCC5)C5CCNCC5)cc4)[nH]c3nc2=O)cc1 [Compound 233] | < 16 µg/mL |
| N=C(N)NCCCN(CCCN)Cc1ccc(-n2cc3cc(-c4ccc(S(=O)(=O)NC5CCNCC5)cc4F)[nH]c3nc2=O)cc1 [Compound 221] | < 16 µg/mL |
| N=C(N)NCCCN(CCCN)Cc1ccc(-n2cc3cc[nH]c3nc2=O)cc1 [Compound 194] | < 16 µg/mL |
| NC1CCN(Cc2ccc(-n3cc4cc(-c5ccc(S(=O)(=O)N6CCN7CCC6CC7)c(F)c5)[nH]c4nc3=O)cc2)CC1 [Compound 264] | > 16 µg/mL |
| NCCCN(CCCN)Cc1ccc(-n2cc3cc(-c4ccc(C(=O)NC5CCOCC5)cc4)[nH]c3nc2=O)cc1 [Compound 193] | > 16 µg/mL |

The next lines start with the values.

| MIC | Compound |
| --- | --- |
| < 16 µg/mL | NCCCNCc1ccc(-n2cc3cc(-c4ccc(S(=O)(=O)NC5CCNCC5)cc4)[nH]c3nc2=O)cc1 [Compound 852] |
| < 16 µg/mL | NCCCNCc1ccc(-n2cc3cc(-c4ccc(S(=O)(=O)N(CC5CC5)C5CCNCC5)cc4)[nH]c3nc2=O)cc1 [Compound 711] |
| < 16 µg/mL | N=C(N)NCCCNCc1ccc(-n2cc3cc(C4CCN(C(=N)N)C4)[nH]c3nc2=O)cc1 (centres unmarked) [Compound 1230] |
| < 16 µg/mL | NCCCNCc1ccc(-n2cc3cc(-c4cccc(N5CCNCC5)c4)[nH]c3nc2=O)cc1 [Compound 775] |
| > 16 µg/mL | COCc1cc2cn(-c3ccc(CNCCCN)cc3)c(=O)nc2[nH]1 [Compound 610] |
| < 16 µg/mL | NCCCNCc1ccc(-n2cc3cc(-c4ccc(S(=O)(=O)N(Cc5ccc(Cl)c(Cl)c5)C5CCNCC5)cc4)[nH]c3nc2=O)cc1 [Compound 697] |
| > 16 µg/mL | CCOCc1cc2cn(-c3ccc(CNCCCN)cc3)c(=O)nc2[nH]1 [Compound 764] |
| > 16 µg/mL | NCc1ccc(-n2cc3cc(-c4cccc(S(=O)(=O)N(CCc5cccc([N+](=O)[O-])c5)C5CCNCC5)c4)[nH]c3nc2=O)cc1 [Compound 1184] |
| < 16 µg/mL | N=C(N)NCCCNCc1ccc(-n2cc3cc(-c4cccc(OCCCN5CCNCC5)c4)[nH]c3nc2=O)cc1 [Compound 1162] |
| < 16 µg/mL | N=C(N)NCCCNCc1ccc(-n2cc3cc(-c4cc(C(=O)N5CCN(c6ccc(F)cc6)CC5)cc(N5CCNCC5)c4)[nH]c3nc2=O)cc1 [Compound 755] |
| < 16 µg/mL | N=C(N)NCCCNCc1ccc(-n2cc3cc([C@@H]4C[C@@H](N)[C@@H](CO)O4)[nH]c3nc2=O)cc1 [Compound 1267] |
| < 16 µg/mL | NCCCNCc1ccc(-c2cn3cc(-c4ccc(C(=O)NC5CCNCC5)cc4)[nH]c3nc2=O)cc1 [Compound 648] |
| > 16 µg/mL | CC(C)(N)c1cc2cn(-c3ccc(CNCCCN)cc3)c(=O)nc2[nH]1 [Compound 625] |
| > 16 µg/mL | Cn1cc2cc(-c3ccc(F)cc3)[nH]c2nc1=O [Compound 580] |
| > 16 µg/mL | NCCc1c[nH]c2cc(-n3cc4cc(CCS(=O)(=O)C5CCNCC5)[nH]c4nc3=O)ccc12 [Compound 1278] |
| > 16 µg/mL | NCCCNCc1ccc(-c2cn3cc(-c4ccc(S(=O)(=O)N5CCN(C(=O)OCc6ccccc6)CC5)cc4)[nH]c3nc2=O)cc1 [Compound 791] |
| < 16 µg/mL | NCCCNCc1ccc(-c2cn3cc(-c4ccc(S(=O)(=O)N5CCNCC5)cc4)[nH]c3nc2=O)cc1 [Compound 789] |
| > 16 µg/mL | NC(=O)c1ccc(-n2cc3cc(-c4ccc(S(=O)(=O)N(CCOc5ccc(F)cc5)C5CCNCC5)cc4)[nH]c3nc2=O)cc1 [Compound 1080] |
| > 16 µg/mL | NCCCNCc1ccc(-c2cn3cc(-c4ccc(C(=O)NN5CCOCC5)cc4)[nH]c3nc2=O)cc1 [Compound 723] |
| > 16 µg/mL | CNCCOc1ccccc1-c1cc2cn(-c3ccc(CN)cc3)c(=O)nc2[nH]1 [Compound 1129] |
| < 16 µg/mL | N=C(N)NCCCNCc1ccc(-n2cc3cc(-c4ccc(S(=O)(=O)N(C5CCNCC5)C5CCOCC5)cc4)[nH]c3nc2=O)cc1 [Compound 727] |
| > 16 µg/mL | CNCc1ccc(-n2cc3cc(-c4ccc(S(=O)(=O)N(CCCN5CCOCC5)C5CCNCC5)cc4)[nH]c3nc2=O)cc1 [Compound 1037] |
| > 16 µg/mL | NCCCNCc1ccc(-n2cc3cc(CC4CCCCC4)[nH]c3nc2=O)cc1 [Compound 622] |
| < 16 µg/mL | N=C(N)NCCCNCc1ccc(-n2cc3cc(-c4cccc(CCN5CCNCC5)c4)[nH]c3nc2=O)cc1 [Compound 1199] |
